# Reference: patent publication US5202434A, “8a-aza-8a-homoerythromycin lactams” (Merck & Co., Inc., priority 1992, dated 1993)
# Assays:
# Test in all cases: MIC, liquid turbidimetric microtiter broth method
# Assay type in all cases: cell-based
# [1] = test system: Steptococcus pneumoniae CL 2883
# Description: (§1) The compounds of formula (II) will show antibacterial activity against a range of aerobic Gram positive and negative bacteria as shown in the following Table. The assay employs a liquid turbidimetric microtiter method for determination of the minimum inhibitory concentration (MIC) in broth media. […] The MIC is generally not an absolute value but rather a concentration range that falls within a two-fold dilution limit. Generally, twelve two-fold dilutions of the test compound are employed with the initial concentration set at 128 mcg/ml.
# Escherichia coli MB 4926 = conditions: MB4926
# Description: as §1
# [2] = test system: Streptococcus viridans CL 2943; conditions: CL2943
# Description: as §1
compound,measurement,setting,value
"CC[C@H]1OC(=O)[C@H](C)[C@@H](O[C@H]2C[C@@](C)(OC)[C@@H](O)[C@H](C)O2)[C@H](C)[C@@H](O[C@@H]2O[C@H](C)C[C@H](N(C)C)[C@H]2O)[C@](C)(O)C[C@@H](C)NC(=O)[C@H](C)[C@@H](O)[C@]1(C)O [8aaza-8a-homoerythromycin A, 8a-Aza-8a-homoerythromycin A]",MIC,[1],≤ 0.06 µg/mL
same,MIC,Escherichia coli MB 4926,4 µg/mL
same,MIC,[2],4 µg/mL
